Data from article PMC10336134, “Effects of dialkoxybenzenes against Varroa destructor and identification of 1-allyloxy-4-propoxybenzene as a promising acaricide candidate” (Scientific Reports, 2023).

Legend:
[1] = target: T1, Human expressed AChE (hAChE) (Homo sapiens, UniProt P22303); test: Ellman assay, Michaelis-Menten kinetics with inhibitor; type: biochemical; conditions: acetylthiocholine; 0.5-3 mM compound; pH 7.6; competitive
T1 construct: recombinant, commercial lyophilized powder (Sigma C1682)

[2] = system: T2, Varroa destructor AChE (VdAChE); test: Ellman assay, […] nm; type: biochemical; conditions: no test compound; sodium phosphate pH 7.6, DTNB, ethanol/Tween 20; mite extract; read-out: KM (× 10^-5 M)
T2 construct: native extract from pre-frozen mites

[3] = system: T3, Honey bee AChE (AmAChE); test: Ellman assay; type: biochemical, Apis mellifera; conditions: no test compound; sodium phosphate pH 7.6, DTNB, ethanol/Tween 20; bee isolate; read-out: KM (× 10^-5 M)
T3 construct: gene AmAChE1; native isolate from nurse bees
Source text: Ellman assay on Honey bee AChE (AmAChE)

[4] = substrate: CC(=O)SCC[N+](C)(C)C; test: purified protein; type: biochemical, Homo sapiens; conditions: no test compound, sodium phosphate pH 7.6, DTNB, ethanol/Tween 20

In the case of `CCN(CC)C(=O)c1cccc(C)c1` [DEET], the “Ellman assay, Michaelis-Menten kinetics with inhibitor” value [1] is reported as “all three forms of the enzyme, hAChE, AmAChE and VdAChE, were competitively inhibited by DEET”.

`CC(=O)SCC[N+](C)(C)C` [acetylthiocholine iodide] gave a Km [2] of 14 µM and a Km [3] of 22 µM.

B1: Human expressed AChE (hAChE) (Homo sapiens) (protein)
chain: EGREDAELLVTVRGGRLRGIRLKTPGGPVSAFLGIPFAEPPMGPRRFLPPEPKQPWSGVVDATTFQSVCYQYVDTLYPGFEGTEMWNPNRELSEDCLYLNVWTPYPRPTSPTPVLVWIYGGGFYSGASSLDVYDGRFLVQAERTVLVSMNYRVGAFGFLALPGSREAPGNVGLLDQRLALQWVQENVAAFGGDPTSVTLFGESAGAASVGMHLLSPPSRGLFHRAVLQSGAPNGPWATVGMGEARRRATQLAHLVGCPPGGTGGNDTELVACLRTRPAQVLVNHEWHVLPQESVFRFSFVPVVDGDFLSDTPEALINAGDFHGLQVLVGVVKDEGSYFLVYGAPGFSKDNESLISRAEFLAGVRVGVPQVSDLAAEAVVLHYTDWLHPEDPARLREALSDVVGDHNVVCPVAQLAGRLAAQGARVYAYVFEHRASTLSWPLWMGVPHGYEIEFIFGIPLDPSRNYTAEEKIFAQRLMRYWANFARTGDPNEPRDPKAPQWPPYTAGAQQYVSLDLRPLEVRRGLRAQACAFWNRFLPKLLSATDTLDEAERQWKAEFHRWSSYMVHWKNQFDHYSKQDRCSDL
notes: recombinant, commercial lyophilized powder (Sigma C1682)
In the case of B1, the Km [4] is reported as “(1.0 ± 0.2) × 10^-4 M” and the Vmax [4] is reported as 51 µM/min.
